# Test results taken from patent publication US20120029187A1, “HALOALKYLSULFONANILIDE DERIVATIVE” (Nissan Chemical Industries, Ltd., priority 2009, published 2012).
# Legend:
# Type in all cases: in vivo
# wild oat [1] = experiment: Test Example 3: herbicidal effects in soil treatment; conditions: dose 3.2 g/a
# Outline: (§1)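 Seeds were sown in sterilized diluvial soil and covered with about 1.5 cm of soil. Compounds, formulated as emulsifiable concentrates and diluted with water, were sprayed evenly over the soil surface at set doses in g/a. Herbicidal effect was scored on a rating scale three weeks later.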
# large crabgrass [2] = experiment: as above; conditions: dose 3.2 g/a
# Outline: as §1
# velvetleaf [3] = experiment: as above; conditions: dose 3.2 g/a
# Outline: as §1
# beadstraw = experiment: as above; conditions: dose 3.2 g/a
# Outline: as §1
# water foxtail [4] = experiment: as above; conditions: dose 3.2 g/a
# Outline: as §1
# Italian ryegrass [5] = experiment: as above; conditions: dose 3.2 g/a
# Outline: as §1
# redroot pigweed [6] = experiment: as above; conditions: dose 3.2 g/a
# Outline: as §1
# common lambsquater [7] = experiment: as above; conditions: dose 3.2 g/a
# Outline: as §1
# giant foxtail [8] = experiment: as above; conditions: dose 3.2 g/a
# Outline: as §1
# barnyardgrass [9] = experiment: as above; conditions: dose 3.2 g/a
# Outline: as §1
# common ragweed [10] = experiment: as above; conditions: dose 3.2 g/a
# Outline: as §1
# common chickweed [11] = experiment: as above; conditions: dose 3.2 g/a
# Outline: as §1
# transplanted rice = experiment: Test Example 1: preemergence treatment under submerged conditions, effect on crop; conditions: dose 2.52 g/a
# Outline: (§2)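 Score 0–5 by mortality (5: ≥90%; 0: <5%), read 3 weeks post-application. Paddy-type cups: alluvial soil under 4 cm water, weeds seeded plus transplanted 2.5-leaf rice; diluted EC dosed onto water surface same day as sowing, g/a basis; greenhouse 25 to 30° C.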
# ducksalad [12] = experiment: Test Example 2: herbicidal effects during the vegetation period under submerged conditions; conditions: treatment during the vegetation period under submerged conditions; dose 2.52 g/a
# Outline: (§3)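 Barnyardgrass, bulrush and ducksalad were co-sown in alluvial soil flooded to 4 cm and grown in a greenhouse at 25 to 30° C. At the 1- or 2-leaf stage, water-diluted emulsifiable concentrates went onto the water surface at set doses (g/a). Herbicidal effect was scored three weeks later on a graded scale.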
# bulrush [13] = experiment: as above; conditions: treatment during the vegetation period under submerged conditions; dose 2.52 g/a
# Outline: as §3
# barnyardgrass [14] = experiment: as above; conditions: treatment during the vegetation period under submerged conditions; dose 2.52 g/a
# Outline: as §3
# ducksalad [15] = experiment: Test Example 1: herbicidal effects in preemergence treatment under submerged conditions; conditions: dose 2.52 g/a
# Outline: as §2
# bulrush [16] = experiment: as above; conditions: dose 2.52 g/a
# Outline: as §2
# barnyardgrass [17] = experiment: as above; conditions: dose 2.52 g/a
# Outline: as §2
# wild oat [18] = experiment: Test Example 4: herbicidal effect in foliage treatment; conditions: dose 3.2 g/a, three weeks after the application
# Outline: (§4)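 Sowing in sterilized diluvial soil, ~1.5 cm cover; growth 14 d, 25–30° C greenhouse; foliar spray of water-diluted EC at predetermined g/a; scoring 3 wk later on graded scale.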
# large crabgrass [19] = experiment: as above; conditions: dose 3.2 g/a, three weeks after the application
# Outline: as §4
# velvetleaf [20] = experiment: as above; conditions: dose 3.2 g/a, three weeks after the application
# Outline: as §4
# posumbu knotweed = experiment: as above; conditions: dose 3.2 g/a, three weeks after the application
# Outline: as §4
# water foxtail [21] = experiment: as above; conditions: dose 3.2 g/a, three weeks after the application
# Outline: as §4
# Italian ryegrass [22] = experiment: as above; conditions: dose 3.2 g/a, three weeks after the application
# Outline: as §4
# redroot pigweed [23] = experiment: as above; conditions: dose 3.2 g/a, three weeks after the application
# Outline: as §4
# common lambsquater [24] = experiment: as above; conditions: dose 3.2 g/a, three weeks after the application
# Outline: as §4
# giant foxtail [25] = experiment: as above; conditions: dose 3.2 g/a, three weeks after the application
# Outline: as §4
# barnyardgrass [26] = experiment: as above; conditions: dose 3.2 g/a, three weeks after the application
# Outline: as §4
# common ragweed [27] = experiment: as above; conditions: dose 3.2 g/a, three weeks after the application
# Outline: as §4
# common chickweed [28] = experiment: as above; conditions: dose 3.2 g/a, three weeks after the application
# Outline: as §4
smiles,measurement,setting,value
CCOC(=O)N(c1ccccc1CN1C(=O)C(Br)C(C)(C)OC1C)S(=O)(=O)C(F)(F)F (centres unmarked) [II-76],"herbicidal effect, F: wild oat",wild oat [1],0 (mortality of less than 5% (almost ineffective))
same,"herbicidal effect, D: large crabgrass",large crabgrass [2],3 (mortality of at least 40% and less than 70%)
same,"herbicidal effect, I: velvetleaf",velvetleaf [3],3 (mortality of at least 40% and less than 70%)
same,"herbicidal effect, O: beadstraw",beadstraw,5 (mortality of 90% or above (nearly complete death))
same,"herbicidal effect, G: water foxtail",water foxtail [4],5 (mortality of 90% or above (nearly complete death))
same,"herbicidal effect, H: Italian ryegrass",Italian ryegrass [5],0 (mortality of less than 5% (almost ineffective))
same,"herbicidal effect, K: redroot pigweed",redroot pigweed [6],3 (mortality of at least 40% and less than 70%)
same,"herbicidal effect, L: common lambsquater",common lambsquater [7],3 (mortality of at least 40% and less than 70%)
same,"herbicidal effect, E: giant foxtail",giant foxtail [8],0 (mortality of less than 5% (almost ineffective))
same,"herbicidal effect, A: barnyardgrass",barnyardgrass [9],3 (mortality of at least 40% and less than 70%)
same,"herbicidal effect, J: common ragweed",common ragweed [10],0 (mortality of less than 5% (almost ineffective))
same,"herbicidal effect, N: common chickweed",common chickweed [11],3 (mortality of at least 40% and less than 70%)
CC1OC(C)(C)CC(=O)N1Cc1ccccc1NS(=O)(=O)C(F)(F)F (centres unmarked) [II-72],"a: transplanted rice, effect on crop (evaluation scale 0-5)",transplanted rice,3 (mortality of at least 40% and less than 70%)
same,"D: large crabgrass, herbicidal effect (evaluation scale 0-5)",large crabgrass [2],5 (mortality of 90% or above (nearly complete death))
same,"O: beadstraw, herbicidal effect (evaluation scale 0-5)",beadstraw,4 (mortality of at least 70% and less than 90%)
same,"G: water foxtail, herbicidal effect (evaluation scale 0-5)",water foxtail [4],5 (mortality of 90% or above (nearly complete death))
same,"H: Italian ryegrass, herbicidal effect (evaluation scale 0-5)",Italian ryegrass [5],5 (mortality of 90% or above (nearly complete death))
same,"K: redroot pigweed, herbicidal effect (evaluation scale 0-5)",redroot pigweed [6],3 (mortality of at least 40% and less than 70%)
same,"L: common lambsquater, herbicidal effect (evaluation scale 0-5)",common lambsquater [7],0 (mortality of less than 5% (almost ineffective))
same,"E: giant foxtail, herbicidal effect (evaluation scale 0-5)",giant foxtail [8],5 (mortality of 90% or above (nearly complete death))
same,"A: barnyardgrass, herbicidal effect (evaluation scale 0-5)",barnyardgrass [9],5 (mortality of 90% or above (nearly complete death))
same,"J: common ragweed, herbicidal effect (evaluation scale 0-5)",common ragweed [10],4 (mortality of at least 70% and less than 90%)
same,"N: common chickweed, herbicidal effect (evaluation scale 0-5)",common chickweed [11],4 (mortality of at least 70% and less than 90%)
same,"C: ducksalad, herbicidal effect (evaluation scale 0-5)",ducksalad [12],5 (mortality of 90% or above (nearly complete death))
same,"B: bulrush, herbicidal effect (evaluation scale 0-5)",bulrush [13],5 (mortality of 90% or above (nearly complete death))
same,"A: barnyardgrass, herbicidal effect (evaluation scale 0-5)",barnyardgrass [14],5 (mortality of 90% or above (nearly complete death))
same,"C: ducksalad, herbicidal effect (evaluation scale 0-5)",ducksalad [15],5 (mortality of 90% or above (nearly complete death))
same,"B: bulrush, herbicidal effect (evaluation scale 0-5)",bulrush [16],5 (mortality of 90% or above (nearly complete death))
same,"A: barnyardgrass, herbicidal effect (evaluation scale 0-5)",barnyardgrass [17],5 (mortality of 90% or above (nearly complete death))
same,"F: wild oat, herbicidal effect",wild oat [18],1 (mortality of at least 5% and less than 20%)
same,"D: large crabgrass, herbicidal effect",large crabgrass [19],4 (mortality of at least 70% and less than 90%)
same,"I: velvetleaf, herbicidal effect",velvetleaf [20],5 (mortality of 90% or above (nearly complete death))
same,"M: posumbu knotweed, herbicidal effect",posumbu knotweed,3 (mortality of at least 40% and less than 70%)
same,"G: water foxtail, herbicidal effect",water foxtail [21],5 (mortality of 90% or above (nearly complete death))
same,"H: Italian ryegrass, herbicidal effect",Italian ryegrass [22],5 (mortality of 90% or above (nearly complete death))
same,"K: redroot pigweed, herbicidal effect",redroot pigweed [23],2 (mortality of at least 20% and less than 40%)
same,"L: common lambsquater, herbicidal effect",common lambsquater [24],1 (mortality of at least 5% and less than 20%)
same,"E: giant foxtail, herbicidal effect",giant foxtail [25],4 (mortality of at least 70% and less than 90%)
same,"A: barnyardgrass, herbicidal effect",barnyardgrass [26],4 (mortality of at least 70% and less than 90%)
same,"J: common ragweed, herbicidal effect",common ragweed [27],3 (mortality of at least 40% and less than 70%)
same,"N: common chickweed, herbicidal effect",common chickweed [28],3 (mortality of at least 40% and less than 70%)
